Experimental data: patent US20090143236A1, “Method of detecting cancer cell acquiring drug-resistance” (BML, INC., priority 2004, published 2009)

System: SKOV3 cells and SKOV3/VP cells
Test: Caspase activity (colorimetric CaspACE assay) of ovarian cancer cells treated with VP-16
Format: cell-based, Human
Conditions: 100 μg/ml VP-16, 24 hours; FIG. 4A
Protocol: Caspase activity was measured using a calorimetric CaspACE assay system (Promega Co., Madison, Wis., U.S.A.) in accordance with the instructions included therewith. SKOV3 cells and SKOV3/VP cells were cultured for 24 hours in the presence of 100 μg/ml VP-16, or VP-16 and the caspase inhibitor Z-VAD-FMK, or in the presence of only a medium (control). The cells were dissolved in a lysis buffer, and the resultant was then subjected to centrifugation at 4° C. at 15,000×g for 20 minutes. The supernatant (containing 100 μg of protein) was incubated with a substrate (Ac-DEVD-pNA) used for the measurement of caspase activity at 37° C. for 4 hours. Thereafter, the absorbance at 405 nm was measured, so as to obtain the activity.
The influence of BCL2L2 gene expression on apoptosis induced by anticancer drugs was analyzed. Human ovarian cancer SKOV3 cells and etoposide-resistant ovarian cancer SKOV3/VP cells were cultured for 24 hours in the presence of 100 μg/ml VP-16, so as to measure apoptosis associated with activation of caspase-3. […] Thereafter, in order to analyze the role of the BCL2L2 gene, the cells were treated with the antisense oligonucleotide of BCL2L2, and the influence of VP-16 was analyzed under conditions wherein expression of the BCL2L2 gene was suppressed. […]

SMILES: COc1cc([C@@H]2c3cc4c(cc3[C@@H](O[C@@H]3O[C@@H]5CO[C@@H](C)O[C@H]5[C@H](O)[C@H]3O)[C@H]3COC(=O)[C@H]23)OCO4)cc(OC)c1O [VP-16, etoposide]
- caspase activity in etoposide-resistant SKOV3/VP cells compared with parent line SKOV3: decreased to approximately one-half
